# Assay results from US6943190B2, “Method of using pyruvate and/or its derivatives for the treatment of cytokine-mediated inflammatory conditions” (University of Pittsburgh-of the Commonwealth System of …, priority 2001, dated 2005).
# Like-named read-outs stand apart in the source and are kept apart here.
# What was measured:
# [1] = test system: IL-1; assay: Peak serum IL-1 in endotoxemic mice (ELISA); format: in vivo, Balb/C mice; conditions: pretreatment, data not shown
# Procedure: Endotoxin shock. Mice were injected with endotoxin (Escherichia coli lipopolysaccharide, LPS 0111:B4; Sigma Chemical Co, St. Louis, Mo.) that was dissolved in sterile pyrogen-free saline at stock concentrations of 10 mg/ml. LPS solutions were sonicated for 20 min immediately prior to use for each experiment. Mice received an LD75 dose of LPS (5 mg/kg, i.p.). Blood was collected at different times after LPS administration, allowed to clot for 2 h at room temperature, then centrifuged for 20 min at 1,500 g. Serum samples were stored at […] prior to analysis. Mortality was recorded for up to 3 weeks after injection to ensure that no additional late deaths occurred.
# Cytokine measurements. TNF concentration in mouse serum and in conditioned media from RAW 264.7 cell cultures was measured by ELISA (minimum detectable concentration=10 pg/ml). […] Mouse serum IL-6 and IL-1β levels were measured using ELISA kits (R&D Systems, Inc., Minneapolis, Minn.). HMGB-1 was analyzed by western blot as previously described by Wang et al, 1999. […] Protein was electroblotting to Immun-blot PVDF membrane (Bio-rad, Hercules Calif.) and HMGB-1 was analyzed using polyclonal 241 antibody and secondary anti-rabbit horseradish peroxidase (Amersham, Pitscataway, N.J.). Standard curves were constructed using r-HMGB-1, and the intensity of the 30 kD band analyzed by densitometry. […]
# [2] = test system: TNF gene transcript; assay: TNF mRNA in LPS-stimulated RAW 264.7 cells (RNase protection assay); format: cell-based, murine
# Procedure: Cell Culture. BALB/c murine macrophage-like RAW 264.7 cells obtained from the American Type Culture Collection (ATCC Number TIB-71, ATCC, Rockville, Mass.) (61), were cultured in RPMI 1640 (Life Technologies, Grand Island, N.Y.) supplemented with 10% heat inactivated fetal bovine serum (Gemini, Calabasas, Calif.), 2 mM glutamine (Cat. # 25030-149, Gibco BRL, Rockville, Mass.) and antibiotic-antimycotic mix (Cat. # 15240-062, Gibco BRL, Rockville, Mass.) in a humidified incubator with 5% CO2. Cells were mechanically removed and resuspended in serum-free Opti-MEM I medium (Life Technology, Grand Island, N.Y.) to perform experiments at 75% confluence.
# Total RNA extraction and RNase protection assay. […] The levels of TNF and cyclophilin mRNA in RAW cells were measured using an RNase protection assay kit from PharMingen in accordance with the manufacturer's instructions (San Diego, Calif.). […] Molecular weight markers were prepared using pBR-322 plasmid DNA digested with MSP I (New England Bio Labs, Beverly, Mass.) and Klenow end-labeled (Strategene, La Jolla, Calif.) with ^α-32P-dCTP (800 Ci/mmol, Amersham); mRNA levels were measured with an Instantlmager (Packard Instrument Co., Meriden, Conn.).
# To determine the effect of ethyl pyruvate on TNF synthesis by macrophages, murine macrophage-like RAW 264.7 cells were stimulated with endotoxin, and TNF measured in the conditioned media. […]
# [3] = test system: p38 MAPK; assay: LPS-induced p38 MAPK phosphorylation in RAW264.7 cells (western blot); format: cell-based, murine
# Procedure: (a) RAW264.7 cells were stimulated with LPS in the presence of the indicated concentrations of ethyl pyruvate. The activation of NF-kB was analyzed by EMSA at 15 min and 4 hours using a ^32P-labeled NF-B probe. Ethyl pyruvate suppressed activation of NF-B in an ethyl pyruvate concentration dependent fashion. The experiment was repeated 3 times. (b) Supershift and competition studies. Nuclear extract of macrophages stimulated with LPS and incubated with antibody against p65-Rel to induce specific supershift of NF-κB complex. Nuclear extracts were incubated with 100-fold molar excess of unlabeled (cold) NP-κB or HIF-1 probe for competition analysis. (c) RAW264.7 cells were stimulated with LPS in the presence of the indicated concentration of ethyl pyruvate. The phosphorylation of p38MAPK was analyzed by western blot using antibodies against phosphorylated (thr180/tyr182) p38MAPK (in accordance with the manufacturer (New England Biolabs, Inc Cat. # 9210, Beverly, Mass.). (d) The total amount of p38 MAPK is visualized by western blot. Ethyl pyruvate prevents the phosphorylation of p38MAPK in macrophage cultures without affecting the intracellular level of total p38MAPK; and
# Cell Culture. […]
# [4] = Stability of pyruvate esters in aqueous solution; format: physicochemical; conditions: in the presence of calcium salts; compared with sodium pyruvate
structure (smiles),measurement,setting,value
CCOC(=O)C(C)=O [ethyl pyruvate],peak serum level of IL-1,[1],attenuated
same,amount of TNF mRNA / TNF transcription,[2],prevents LPS-induced transcription of TNF in an ethyl pyruvate concentration dependent fashion
same,amount of TNF mRNA / TNF transcription,[2]; listed as Ethyl pyruvate,significantly reduced the amount of TNF mRNA
same,LPS-induced phosphorylation of p38 MAPK,[3]; antibodies against phosphorylated (thr180/tyr182) p38MAPK,prevented the LPS-induced phosphorylation and subsequent activation of p38 MAPK
same,total levels of p38 MAPK,"[3]; specificity control, western blot",did not significantly influence the total levels of p38 MAPK
same,stability of aqueous solution,[4],more stable aqueous solution than sodium pyruvate
